Data as given in ChEMBL document CHEMBL5532661, “Discovery of a Novel Glucagon-like Peptide-1 (GLP-1) Analogue from Bullfrog and Investigation of Its Potential for Designing GLP-1-Based Multiagonists” (J Med Chem, 2024).
Calls of active or inactive are those of the source. The calls are words filed in the database; no cut-off is given here. Numbered stars: 1 amine (or outer) side, 2 acyl side, 3 side chain; on linkers, the order of the positions; unused ones are H or OH. Side chains are listed from the residue outwards. Peptide text beside a SMILES is read from it. * marks the point of attachment. γGlu = O=C(O)[C@H](CCC(=O)[*:2])N[*:1]; Palmitoyl = CCCCCCCCCCCCCCCC(=O)*

Tests used:
Mus musculus [1] = experiment: Reduction in total fat mass in DIO mouse at 30 nmol/kg, sc treated twice a day measured after 21 days; type: functional, organism-based; conditions: time 21.0 day
Mus musculus [2] = experiment: Antihyperglycemic effect in DIO mouse assessed as antihyperglycemic duration by measuring blood glucose at 30 nmol/kg, sc measured after 12 to 24 hrs by hypoglycemic duration assay; type: functional, organism-based; conditions: time 12-24 hrs
[3] = target: T1, Glucagon-like peptide 1 receptor (Homo sapiens, UniProt P43220); experiment: Agonist activity at human GLP-1 receptor expressed in HEK293 cells assessed as cAMP level measured after 60 mins by HTRF based assay; type: functional, cell-based
T1 sequence (P43220 whole entry): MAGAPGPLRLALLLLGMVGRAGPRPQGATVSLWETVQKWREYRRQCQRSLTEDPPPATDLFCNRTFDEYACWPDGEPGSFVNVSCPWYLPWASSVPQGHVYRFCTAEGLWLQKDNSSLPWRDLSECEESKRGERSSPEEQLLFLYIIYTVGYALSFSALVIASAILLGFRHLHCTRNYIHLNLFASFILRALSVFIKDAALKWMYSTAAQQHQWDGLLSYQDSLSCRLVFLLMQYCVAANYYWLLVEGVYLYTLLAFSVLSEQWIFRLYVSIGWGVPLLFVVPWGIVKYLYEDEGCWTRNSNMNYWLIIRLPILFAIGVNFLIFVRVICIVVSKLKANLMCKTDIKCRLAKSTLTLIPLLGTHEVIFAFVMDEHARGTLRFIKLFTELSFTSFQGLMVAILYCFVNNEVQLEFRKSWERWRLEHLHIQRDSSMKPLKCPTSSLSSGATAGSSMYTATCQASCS

Glucagon receptor [4] = target: T2, Glucagon receptor (Homo sapiens, UniProt P47871); experiment: Potency index, ratio of glucagon EC50 to test compound EC50 for agonist activity at human GCGR expressed in HEK293 cells assessed as cAMP level measured after 60 mins by HTRF based assay; type: functional, cell-based; conditions: filed as agonist
T2 sequence (P47871 whole entry): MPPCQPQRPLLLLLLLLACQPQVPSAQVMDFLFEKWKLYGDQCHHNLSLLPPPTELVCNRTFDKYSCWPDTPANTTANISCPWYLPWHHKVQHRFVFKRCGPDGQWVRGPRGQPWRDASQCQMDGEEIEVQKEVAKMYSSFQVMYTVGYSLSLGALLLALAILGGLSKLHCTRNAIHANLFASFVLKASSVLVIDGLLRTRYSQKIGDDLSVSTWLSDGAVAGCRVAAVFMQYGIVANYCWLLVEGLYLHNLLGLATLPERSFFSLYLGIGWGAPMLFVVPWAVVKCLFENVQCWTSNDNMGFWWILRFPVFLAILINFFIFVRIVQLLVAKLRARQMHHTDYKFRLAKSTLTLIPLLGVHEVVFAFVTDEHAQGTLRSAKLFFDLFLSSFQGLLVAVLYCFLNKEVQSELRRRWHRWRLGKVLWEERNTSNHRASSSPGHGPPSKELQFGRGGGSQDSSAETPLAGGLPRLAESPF

Mus musculus [5] = experiment: Anorexigenic effect in sc dosed ICR mouse assessed as decrease in food intake measured upto 72 hrs by acute food intake study; type: functional, organism-based; conditions: dose 10-100 nmol/kg
Mus musculus [6] = experiment: Anorexigenic effect in ICR mouse assessed as decrease in food intake at 30 nmol/kg, sc measured upto 72 hrs by acute food intake study; type: functional, organism-based
Glucagon receptor [7] = target: T2, Glucagon receptor; experiment: Agonist activity at human GCGR expressed in HEK293 cells assessed as cAMP level by measuring relative percent (glucagon EC50/compound EC50) measured after 60 mins by HTRF based assay relative to glucagon; type: functional, cell-based; conditions: filed as agonist
Glucagon receptor [8] = target: T2, Glucagon receptor; experiment: Agonist activity at human GCGR expressed in HEK293 cells assessed as cAMP level measured after 60 mins by HTRF based assay; type: functional, cell-based
Mus musculus [9] = experiment: Reduction in hepatic lipid content in DIO mouse at 30 nmol/kg, sc treated twice a day measured after 21 days by H and E staining based assay; type: functional, organism-based; conditions: time 21.0 day
Mus musculus [10] = experiment: Hypoglycemic effect in ICR mouse treated with 3 g/kg glucose assessed as reduction in blood glucose level at 30 nmol/kg, sc measured upto 120 mins pretreated with GLP-1R antagonist by OGTT; type: functional, organism-based
Mus musculus [11] = experiment: Antihyperglycemic effect in DIO mouse assessed as antihyperglycemic duration by measuring blood glucose at 30 nmol/kg, sc administered twice daily measured after 72 hrs by hypoglycemic duration assay; type: functional, organism-based
Mus musculus [12] = experiment: Reduction in feed intake in DIO mouse at 30 nmol/kg, sc treated twice a day measured after 21 days; type: functional, organism-based; conditions: time 21.0 day
[13] = target: Glucagon receptor (Mus musculus) (UniProt Q61606); experiment: Agonist activity at mouse GCGR receptor expressed in HEK293 cells assessed as cAMP level measured after 60 mins by HTRF based assay; type: functional, cell-based; conditions: filed as agonist
Glucagon receptor (Mus musculus), sequence (Q61606 whole entry): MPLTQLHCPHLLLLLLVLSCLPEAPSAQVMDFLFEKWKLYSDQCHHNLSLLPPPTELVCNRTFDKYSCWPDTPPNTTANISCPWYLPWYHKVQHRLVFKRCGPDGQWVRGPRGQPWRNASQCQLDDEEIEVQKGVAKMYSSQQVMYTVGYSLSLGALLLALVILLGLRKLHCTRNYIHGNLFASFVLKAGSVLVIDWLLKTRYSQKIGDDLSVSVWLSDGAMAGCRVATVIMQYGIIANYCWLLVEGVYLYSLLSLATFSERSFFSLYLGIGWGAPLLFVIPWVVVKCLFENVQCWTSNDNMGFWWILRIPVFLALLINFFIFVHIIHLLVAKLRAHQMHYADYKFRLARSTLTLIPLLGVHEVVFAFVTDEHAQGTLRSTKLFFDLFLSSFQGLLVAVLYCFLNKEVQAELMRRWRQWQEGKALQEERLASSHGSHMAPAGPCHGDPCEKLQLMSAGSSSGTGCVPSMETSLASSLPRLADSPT

[14] = target: T3, Glucagon-like peptide 1 receptor (Mus musculus) (UniProt O35659); experiment: Potency index, ratio of GLP-1 EC50 to test compound EC50 for agonist activity at mouse GLP-1 receptor expressed in HEK293 cells assessed as cAMP level measured after 60 mins by HTRF based assay; type: functional, cell-based; conditions: filed as agonist
T3 sequence (whole entry): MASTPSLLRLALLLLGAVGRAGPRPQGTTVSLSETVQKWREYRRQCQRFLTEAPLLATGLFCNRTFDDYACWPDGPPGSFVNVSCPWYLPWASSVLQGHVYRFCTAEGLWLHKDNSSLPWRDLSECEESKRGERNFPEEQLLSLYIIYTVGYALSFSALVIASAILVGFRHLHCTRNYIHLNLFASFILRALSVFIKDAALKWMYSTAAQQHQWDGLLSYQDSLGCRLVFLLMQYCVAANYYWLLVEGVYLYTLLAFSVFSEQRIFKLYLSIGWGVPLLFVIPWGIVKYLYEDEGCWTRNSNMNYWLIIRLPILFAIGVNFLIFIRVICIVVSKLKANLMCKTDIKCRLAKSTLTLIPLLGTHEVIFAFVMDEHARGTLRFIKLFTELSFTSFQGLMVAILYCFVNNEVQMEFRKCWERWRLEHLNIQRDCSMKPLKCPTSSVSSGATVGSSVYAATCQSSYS

Mus musculus [15] = experiment: Anorexigenic effect in ICR mouse assessed as decrease in food intake at 30 nmol/kg, sc measured at 48 hrs by acute food intake study; type: functional, organism-based
Mus musculus [16] = experiment: Reduction in total cholesterol in DIO mouse at 30 nmol/kg, sc treated twice a day measured after 21 days; type: functional, organism-based; conditions: time 21.0 day
Mus musculus [17] = experiment: Antihyperglycemic effect in DIO mouse assessed as prolonged antihyperglycemic duration by measuring blood glucose at 100 nmol/kg, sc; type: functional, organism-based
Mus musculus [18] = experiment: Hypoglycemic effect in ICR mouse treated with 3 g/kg glucose assessed as reduction in blood glucose level at 100 nmol/kg, sc measured upto 120 mins by acute glucose lowering test; type: functional, organism-based
Mus musculus [19] = experiment: Reduction in serum triglyceride in DIO mouse at 30 nmol/kg, sc treated twice a day measured after 21 days; type: functional, organism-based; conditions: time 21.0 day
Mus musculus [20] = experiment: Reduction in body weight in DIO mouse at 30 nmol/kg, sc treated twice a day measured after 21 days; type: functional; set-up: scale not given: the % may be the effect or the level left; conditions: time 21 day
Mus musculus [21] = experiment: Reduction in blood glucose level in non-fasting DIO mouse at 30 nmol/kg, sc treated twice a day measured after 21 days by glucose tolerance test; type: functional, organism-based; conditions: time 21.0 day
Mus musculus [22] = experiment: Anorexigenic effect in ICR mouse assessed as decrease in food intake at 10 nmol/kg, sc measured upto 72 hrs by acute food intake study; type: functional, organism-based
Mus musculus [23] = experiment: Hypoglycemic effect in ICR mouse treated with 3 g/kg glucose assessed as reduction in blood glucose level at 10 nmol/kg, sc measured upto 120 mins by acute glucose lowering test; type: functional, organism-based
[24] = target: T3, Glucagon-like peptide 1 receptor (Mus musculus); experiment: Agonist activity at mouse GLP-1 receptor expressed in HEK293 cells assessed as cAMP level measured after 60 mins by HTRF based assay; type: functional, cell-based; conditions: filed as agonist
[25] = target: T1, Glucagon-like peptide 1 receptor; experiment: Potency index, ratio of Semaglutide EC50 to test compound EC50 for agonist activity at human GLP-1 receptor expressed in HEK293 cells assessed as cAMP level measured after 60 mins by HTRF based assay; type: functional, cell-based; conditions: filed as agonist
Mus musculus [26] = experiment: Reduction in serum ALT level in DIO mouse at 30 nmol/kg, sc treated twice a day measured after 21 days; type: functional, organism-based; conditions: time 21.0 day
Mus musculus [27] = experiment: Reduction in serum AST level in DIO mouse at 30 nmol/kg, sc treated twice a day measured after 21 days; type: functional, organism-based; conditions: time 21.0 day
[28] = target: T1, Glucagon-like peptide 1 receptor; experiment: Agonist activity at human GLP-1 receptor expressed in HEK293 cells assessed as cAMP level by measuring relative percent (GLP-1 EC50/compound EC50) measured after 60 mins by HTRF based assay relative to GLP-1; type: functional, cell-based; conditions: filed as agonist

## CCCCCCCCCCCCCCCC(=O)N[C@@H](CCC(=O)NCCCC[C@H](NC(=O)[C@H](Cc1ccc(O)cc1)NC(=O)[C@H](CCCCN)NC(=O)[C@H](CO)NC(=O)[C@H](CCSC)NC(=O)[C@H](CC(=O)O)NC(=O)[C@H](CO)NC(=O)[C@@H](NC(=O)[C@H](Cc1ccccc1)NC(=O)[C@@H](NC(=O)CNC(=O)[C@H](CCC(N)=O)NC(=O)[C@H](CO)NC(=O)[C@@H](N)Cc1c[nH]cn1)[C@@H](C)O)[C@@H](C)O)C(=O)N[C@@H](CC(=O)O)C(=O)N[C@@H](CO)C(=O)N[C@@H](CCCNC(=N)N)C(=O)N[C@@H](CCCNC(=N)N)C(=O)N[C@@H](C)C(=O)N[C@@H](CCC(N)=O)C(=O)N[C@@H](CC(=O)O)C(=O)N[C@@H](Cc1ccccc1)C(=O)N[C@H](C(=O)N[C@@H](CC(=O)O)C(=O)N[C@@H](Cc1c[nH]c2ccccc12)C(=O)N[C@@H](CC(C)C)C(=O)N[C@@H](CCCCN)C(=O)N[C@@H](CC(N)=O)C(=O)NCC(=O)NCC(=O)N1CCC[C@H]1C(=O)N[C@@H](CO)C(=O)N[C@@H](CO)C(=O)NCC(=O)N[C@@H](C)C(=O)N1CCC[C@H]1C(=O)N1CCC[C@H]1C(=O)N1CCC[C@H]1C(=O)N[C@@H](CO)C(N)=O)C(C)C)C(=O)O (H-HSQGTFTSDMSKYK([γGlu-Palmitoyl])DSRRAQDFVDWLKNGGPSSGAPPPS-NH2)
Mus musculus [1]
  Activity: Active
Mus musculus [2]
  Activity: Active
[3]
  EC50: 0.011 nM
Glucagon receptor [4]
  Ratio EC50: 3
Mus musculus [5]
  Activity: Dose-Dependent Effect
Mus musculus [6]
  Activity: Active
Glucagon receptor [7]
  Activity: 341%
Glucagon receptor [8]
  EC50: 0.027 nM
Mus musculus [9]
  Activity: Active
Mus musculus [10]
  Activity: inactive
Mus musculus [11]
  Activity: Active
Mus musculus [12]
  Activity: Active
[13]
  Activity: Active
[14]
  Ratio EC50: 3
Mus musculus [15]
  Activity: Active
Mus musculus [16]
  Activity: Active
Mus musculus [17]
  Activity: Active
Mus musculus [18]
  Activity: Active
Mus musculus [19]
  Activity: Active
Mus musculus [20]
  Activity: 30.6%
Mus musculus [21]
  Activity: Active
Mus musculus [22]
  Activity: Active
Mus musculus [23]
  Activity: Active
[24]
  Activity: Active
[25]
  Ratio EC50: 3
Mus musculus [26]
  Activity: Active
Mus musculus [27]
  Activity: Active
[28]
  Activity: 482%
